Measurements reported in US11471504B2, “Combination therapy for the treatment of cancer” (Yeda Research and Development Co. Ltd., priority 2017, dated 2022).
Entries after “also recorded” stand apart in the source; their conditions may differ. Residues, ends and D or L forms follow the SMILES beside them. *: point of attachment. Myristoyl = CCCCCCCCCCCCCC(=O)*

Tests used:
[1] = system: BRAF and MEK inhibitor-resistant models; conditions: cited from earlier work
[2] = system: 60T NRAS mutant melanoma cells; conditions: 10 µM
Protocol: (§9) (A) Effect of the EPE peptide on proliferation of metastatic melanoma cells. Thirty-six melanoma cell lines derived from metastatic tumor resections were treated with either EPE or scrambled (Scr) peptides (10 μM). […] Cell viability was measured by CellTiter-Glo reagent after 72 h of treatment. Bars represent percentage of growth respect to Scr peptide control ±S.E. of 3 independent experiments.
(§10) Pathology-confirmed melanoma cell lines were derived from mechanically or enzymatically dispersed tumor cells, which were then cultured in RPMI-1640 supplemented with 10% FBS at 37° C. in 5% CO2 for 5-15 passages. All cell lines have tested negative for mycoplasma.
(§11) Cell viability assay: Cells were seeded at a density of 4000 cells per well into 96-well plates in complete medium. After 24 h, medium was replaced by 1% FCS containing appropriate treatments. Fresh medium containing the same agents was replaced every day. After 96 h, cell proliferation was assessed using the CellTiter-Glo reagent (Promega). IC50 values were determined using GraphPad Prism.

[3] = system: nuclear translocation of ERK1/2; assay: ERK1/2 nuclear translocation, fluorescence microscopy, EPE-resistant melanomas (110T, 39T, 103T); assay type: cell-based, human; conditions: EPE-resistant cells; serum starved, peptide 10 μM 2 h, TPA 100 nM 15 min
Protocol: (§1) FIGS. 2A-B: The EPE peptide blocks the nuclear translocation in “sensitive” NRAS melanomas. The same seven cell lines selected previously, were serum starved (14 h), pre-treated with EPE or Scr peptide […], and stimulated with TPA (100 nM, 15 min) or left untreated (NS). Cells were then fixed and stained with αERK2 Abs and DAPI. […] (B) The effect of EPE peptide on the nuclear translocation of ERK1/2 is modest in resistant cells compared to (A). Bars represent average percentage of cells with mostly nuclear (N, red), nuclear and cytosolic (NC, black) or mostly cytosolic (C, white) staining. Error bars represent standard error of 2 or 3 independent experiments. Quantification was done by counting at least three fields with >150 cells.
(§2) Fluorescence microscopy: Cells were seeded on coverslips coated with 0.001% w/v poly-L-Lysine (PLL) at 60% confluency. After treatments, cells were fixed in 4% paraformaldehyde/PBS^−/− for 20 min on ice surface, permeabilized with 0.1% Triton X-100/PBS^−/− for 5 min at 23° C., then blocked in 2% BSA/PBS^−/− for 30 min at 23° C. […] Slides were analyzed and photographed by a fluorescence microscope (Olympus BX51, x40). […]

[4] = system: 83T NRAS mutant melanoma cells; assay: Cell viability assay (CellTiter-Glo), 83T; assay type: cell-based, human; conditions: 10 μM, 72 h
Protocol: (§3) (B) Effect of BRAF inhibitor vemurafenib on selected melanomas. […] All melanoma cells selected were resistant to BRAF inhibition.
(§4) Dots represent triplicates for every concentration point. […] Viable cells were quantified using CellTiter-Glo reagent. […] Quantified levels are given under the blots. ImageJ was used for the quantification.
(§5) All cell lines have tested negative for mycoplasma.
(§6) IC50 values were determined using GraphPad Prism.

[5] = system: ERK1/2 signaling; assay: Western blot of ERK1/2 signaling, EPE-resistant melanomas (39T, 103T); assay type: cell-based, human; conditions: EPE-resistant cells, 10 μM 2 h
Protocol: (§7) FIGS. 3A-B: The EPE peptide reduces phosphorylation of nuclear targets in NRAS mutant melanomas. Two NRAS melanomas sensitive to EPE peptide (60T an 83T), and two EPE-resistant melanomas (39T and 103T), were serum starved (16 h), pretreated with EPE or Scr peptides (10 μM, 2 h), and stimulated with TPA (100 nM, 15 min) (+) or left untreated (−). […] (A) (Left) In the EPE-sensitive cells, the peptide reduced the phosphorylation of nuclear targets Elk1 and c-Myc in stimulated and basal state, while not affecting cytosolic target RSK. […] (B) Quantification of bands in (A). Bars represent average band density ratio of EPE stimulated samples (EPE+) compared to Scr stimulated samples (Scr+), ±S.E. of 2 or 3 independent experiments. Bands were quantified using ImagJ.
(§8) Quantification of blots was done using ImageJ.

[6] = system: interaction of Importin7 with ERK1/2; conditions: cited from earlier work
[7] = system: 63T NRAS mutant melanoma cells; conditions: 10 µM
Protocol: as §9, §10, §11

[8] = system: cancer cell types, BRAF melanomas; conditions: cited from earlier work
[9] = system: 39T NF1 mutant melanoma cells; assay: Cell viability assay (CellTiter-Glo), 39T; assay type: cell-based, human; conditions: 10 μM, 72 h
[10] = system: 110T NRAS mutant melanoma cells; assay: Cell viability assay (CellTiter-Glo), 110T; assay type: cell-based, human; conditions: 10 μM, 72 h
Protocol: as §3, §4, §5, §6

[11] = system: nuclear translocation of ERK1/2; assay: ERK1/2 nuclear translocation, fluorescence microscopy, EPE-sensitive NRAS melanomas (63T, 83T, 120T, 60T); assay type: cell-based, human; conditions: EPE-sensitive cells; serum starved, peptide 10 μM 2 h, TPA 100 nM 15 min
Protocol: as §1, §2

[12] = system: melanoma cell lines; assay: Cell viability assay (CellTiter-Glo), panel of melanoma cell lines; assay type: cell-based, human; conditions: 36 melanoma cell lines, peptide 10 μM, 72 h
[13] = system: 120T NRAS mutant melanoma cells; assay: Cell viability assay (CellTiter-Glo), 120T; assay type: cell-based, human; conditions: 10 μM, 72 h
[14] = system: ERK1/2 signaling; assay: Western blot of ERK1/2 signaling, EPE-sensitive NRAS melanomas (60T, 83T); assay type: cell-based, human; conditions: EPE-sensitive cells, 10 μM 2 h
Protocol: as §7, §8

O=C(Nc1ccc2[nH]nc(-c3ccncc3)c2c1)[C@@H]1CCN(CC(=O)N2CCN(c3ccc(-c4ncccn4)cc3)CC2)C1 [SCH772984]
tumor growth [1]: showed benefits in reducing tumor growth

CCCCCCCCCCCCCC(=O)NCC(=O)N[C@@H](CCC(N)=O)C(=O)N[C@@H](CC(C)C)C(=O)N[C@@H](CC(N)=O)C(=O)N[C@@H](Cc1c[nH]cn1)C(=O)N[C@H](C(=O)N[C@@H](CC(C)C)C(=O)NCC(=O)N[C@H](C(=O)N[C@@H](CC(C)C)C(=O)NCC(=O)N[C@@H](CCC(=O)O)C(=O)N1CCC[C@H]1C(=O)N[C@@H](CCC(=O)O)C(=O)N[C@@H](CCC(N)=O)C(=O)N[C@@H](CCC(=O)O)C(=O)N[C@@H](CC(=O)O)C(=O)N[C@@H](CC(C)C)C(N)=O)[C@@H](C)CC)[C@@H](C)CC [EPE peptide] (Myristoyl-GQLNHILGILGEPEQEDL-NH2)
sensitivity to the EPE peptide (percentage of viability compared to Scr peptide control) [2]: sensitive
effect on stimulated nuclear translocation of ERK1/2 [3]: disrupted; also recorded: modest
sensitivity to the EPE peptide (percentage of viability compared to Scr peptide control) [4]: sensitive
activity of ERK1/2 (phosphorylation of activatory TEY motif and substrate RSK) [5]: did not inhibit
phosphorylation levels of c-Myc [5]: slightly increased
phosphorylation of Elk1 [5]: no effect
phosphorylation of RSK [5]: no effect
interaction of Importin7 with ERK1/2 and nuclear translocation of ERK1/2 [6]: inhibited
sensitivity to the EPE peptide (percentage of viability compared to Scr peptide control) [7]: sensitive
apoptosis ([8]; BRAF melanomas): induces apoptosis
proliferation of cancer cell types ([8]; several cancer cell types): inhibit the proliferation
sensitivity to the EPE peptide (percentage of viability compared to Scr peptide control) [9]: resistant (resistant (above 80%))
sensitivity to the EPE peptide (percentage of viability compared to Scr peptide control) [10]: resistant (resistant (above 80%))
effect on stimulated nuclear translocation of ERK1/2 [11]: disrupted; also recorded: significantly reduces
sensitivity of metastatic melanoma cell lines to the EPE peptide (viability vs Scr peptide) [12]: A subset of BRAF, NRAS and NF1 mutant melanomas were sensitive
sensitivity to the EPE peptide (percentage of viability compared to Scr peptide control) [13]: sensitive
activity of ERK1/2 (phosphorylation of activatory TEY motif and substrate RSK) [14]: did not inhibit
phosphorylation of cytosolic target RSK [14]: not affecting
phosphorylation of nuclear target Elk1 ([14]; basal and TPA-stimulated): reduced
phosphorylation of nuclear target c-Myc ([14]; basal and TPA-stimulated): reduced
